Patent US20240122932A1, “Methods of Treating B-Cell Malignancy Using Bcl-2 Inhibitor” (BeiGene Switzerland GmbH, priority 2021, published 2024)

Test system: patients with R/R B-cell malignancies
Assay: phase 1 clinical study: safety, tolerability, DLT, MTD
Format: in vivo
Description: A phase 1 study (dose escalation and safety expansion) to determine safety, tolerability, maximum tolerated dose ([…]), and recommended phase 2 dose (RP2D) of Compound 1 in patients with R/R B-cell malignancies was conducted. (Table 6-1A).
Dose-escalation (Part 1) occurs in independent cohorts categorized by patient disease type. These cohorts are continued until a recommended Phase 2 dose (RP2D) is identified, which is then used in corresponding expansion cohorts (Part 2).
Part 1 Monotherapy Ramp-Up Schedule and Dose Finding • 1) Cohort 1A: Cohort 1A consists of patients with relapsed/refractory B-cell non-Hodgkin lymphoma (R/R B-cell NHL) excluding mantle cell lymphoma (MCL). These patients are expected to be at low risk of tumor lysis syndrome (low TLS risk), and are treated with a short ramp-up schedule reaching target dose on Day 3. Patients in this cohort receive escalating doses of Compound 1 monotherapy: 40 mg, 80 mg, 160 mg, 320 mg, and 640 mg (unless adjusted by Safety Monitoring Committee [SMC] recommendation). • 2) Cohort 1B is opened, when ≥1 tolerable dose level of Cohort 1A was determined. It consists of patients with low-tumor-burden R/R CLL/SLL. This cohort pursues dose finding, including evaluation of both ramp-up schedule and target dose. Patients increase the ramp-up dose weekly until the target dose for the cohort is reached. The ramp-up steps is 1 mg, 2 mg, 5 mg, 10 mg, 20 mg, 40 mg, 80 mg, 160 mg, 320 mg, and 640 mg (unless adjusted by SMC recommendation). […]. • 3) Cohort 1C: This Cohort consists of patients with high-tumor-burden R/R chronic lymphocytic leukemia/small lymphocytic lymphoma (R/R CLL/SLL). This cohort will not be dosed until the RP2D for Cohort 1B is established. The objective of this cohort is to confirm, in patients with high-tumor-burden CLL/SLL, the safety of the monotherapy ramp-up schedule and RP2D established in patients with low-tumor-burden CLL/SLL. • 4) Cohort 1D: This Cohort consists of patients with R/R MCL. This cohort will not be dosed until the RP2D for Cohort 1B is established. The objective of this cohort is to confirm, in patients with R/R MCL, the safety of the monotherapy ramp-up schedule and RP2D established in patients with low tumor-burden CLL/SLL. • Cohort 1D′: This Cohort consists of patients with R/R MCL. And, the target dosage are 160 and 320 mg. • 5) Cohort 1E: This Cohort consists of patients with R/R waldenstrom macroglobulinemia (R/R WM). This cohort will not be dosed until the RP2D for Cohort 1B is established. The objective of this cohort is to confirm, in patients with R/R WM, the safety of the monotherapy ramp-up schedule and RP2D established in patients with low tumor-burden CLL/SLL.
All dose cohorts would be reviewed by a safety monitoring committee (SMC) before opening subsequent dose levels or declaring an MTD/RP2D.
The study also includes dose escalation and expansion cohorts for the combination of Compound 1 and Bruton tyrosine kinase (BTK) inhibitor Zanubrutinib in patients with selected B-cell malignancy, such as CLL/SLL and mantle cell lymphoma (MCL). (Table 6-2A). Patients in the combination therapy cohorts receive Zanubrutinib 320 mg daily (160 mg twice a day [BID] or 320 mg once a day [QD]) beginning 8-12 weeks before Compound 1 is introduced. And, the corresponding dose-escalation and expansion are conducted in Part 3 and Part 4):
Dose finding is pursued in Patients with R/R CLL/SLL or R/R MCL who are Bel-2-inhibitor naive and have not progressed on a BTK inhibitor, including evaluation of ramp-up schedule and target dose of Compound 1 when used in combination with Zanubrutinib. The Compound 1 dose vary but the Zanubrutinib dose is fixed at 320 mg/day (160 mg twice daily or 320 mg once daily). The ramp-up dose increases weekly until the target dose for the cohort is reached. […]

[1] = 36 patients, monotherapy N = 25, combination therapy N = 11
[2] = 58 patients, monotherapy n = 32, combination n = 26

Compound: CC(C)c1ccccc1[C@@H]1CCCN1C1CC2(CCN(c3ccc(C(=O)NS(=O)(=O)c4ccc(NCC5CCC(C)(O)CC5)c([N+](=O)[O-])c4)c(Oc4cnc5[nH]ccc5c4)c3)CC2)C1 (stereo partly drawn) [Compound 1, 2-((1H-pyrrolo[2,3-b]pyridin-5-yl)oxy)-N-((4-((((1r,4r)-4-hydroxy-4-methylcyclohexyl)methyl)amino)-3-nitrophenyl)sulfonyl)-4-(2-((S)-2-(2-isopropylphenyl)pyrrolidin-1-yl)-7-azaspiro[3.5]nonan-7-yl)benzamide]
- AEs, n (%): AEs leading to discontinuation of Compound 1 [1]: 1 n (%)
- AEs, n (%): AEs leading to dose reduction of Compound 1 [1]: 0 n (%)
- AEs, n (%): AEs leading to hold of Compound 1 [1]: 4 n (%)
- AEs, n (%): Grade ≥3 AEs [1]: 11 n (%)
- AEs, n (%): Serious AEs [1]: 9 n (%)
- AEs, n (%): Total [1]: 22 n (%)
- AEs, n (%): Leading to death (36 patients, monotherapy N = 25, combination therapy N = 11, neither death related to study drug): 2 n (%)
- Diarrhea, All Grade, n (%) [2]: 8 n (%)
- Diarrhea, Grade ≥3, n (%) [2]: 0 n (%)
- Fatigue, All Grade, n (%) [2]: 8 n (%)
- Fatigue, Grade ≥3, n (%) [2]: 0 n (%)
- Headache, All Grade, n (%) [2]: 5 n (%)
- Headache, Grade ≥3, n (%) [2]: 0 n (%)
- Nausea, All Grade, n (%) [2]: 12 n (%)
- Nausea, Grade ≥3, n (%) [2]: 0 n (%)
- DLTs (Cohort 1A NHL, monotherapy, 40-mg (n=3), 80-mg (n=4) and 320-mg (n=3) dose cohorts): no disease-limiting toxicities (DLTs)
- DLTs (Cohort 1A NHL, monotherapy, 160-mg (n=3+1) dose cohort): one DLT of grade 3 febrile neutropenia
- MTD (Cohort 1A NHL, monotherapy, all dose cohorts completed): no MTD reached through 640 mg
- DLTs (Cohort 1B R/R CLL, monotherapy, 80 mg target dose level (n=4)): one DLT of grade 4 neutropenia
- patients with grade ≥3 neutropenia (monotherapy): 5 patients
- patients with neutropenia (monotherapy): 6 patients
- Abdominal Pain, All Grade, n (%) (monotherapy n = 32): 4 n (%)
- Abdominal Pain, Grade ≥3, n (%) (monotherapy n = 32): 2 n (%)
- Constipation, All Grade, n (%) (monotherapy n = 32): 5 n (%)
- Constipation, Grade ≥3, n (%) (monotherapy n = 32): 0 n (%)
- Dizziness, All Grade, n (%) (monotherapy n = 32): 5 n (%)
- Dizziness, Grade ≥3, n (%) (monotherapy n = 32): 0 n (%)
- Fall, All Grade, n (%) (monotherapy n = 32): 5 n (%)
- Fall, Grade ≥3, n (%) (monotherapy n = 32): 2 n (%)
- Neutropenia, All Grade, n (%) (monotherapy n = 32): 8 n (%)
- Neutropenia, Grade ≥3, n (%) (monotherapy n = 32): 6 n (%)
- Oedema peripheral, All Grade, n (%) (monotherapy n = 32): 4 n (%)
- Oedema peripheral, Grade ≥3, n (%) (monotherapy n = 32): 0 n (%)
- Pyrexia, All Grade, n (%) (monotherapy n = 32): 6 n (%)
- Pyrexia, Grade ≥3, n (%) (monotherapy n = 32): 1 n (%)
- Thrombocytopenia, All Grade, n (%) (monotherapy n = 32): 4 n (%)
- Thrombocytopenia, Grade ≥3, n (%) (monotherapy n = 32): 2 n (%)
- Urinary tract infection, All Grade, n (%) (monotherapy n = 32): 4 n (%)
- Urinary tract infection, Grade ≥3, n (%) (monotherapy n = 32): 0 n (%)
- laboratory TLS (monotherapy, one high-risk patient with CLL, resolved with no intervention): < 2%
- tolerable dose (result of 58 patients, monotherapy or in combination with Zanubrutinib, MTD not yet reached): ≤ 640 mg
